Laboratory results as given in patent publication US12728118B2, “Methods and compositions for the treatment of corneal endothelium disorders” (The Schepens Eye Research Institute, Inc., priority 2020, dated 2026).
Entries after “also recorded” stand apart in the source; their conditions may differ.

Experiments:
[1] = tested on: corneal endothelial (CE) cell; assay: UVA-induced corneal endothelial cell loss in female mice, CYP1B1 inhibitor treatment; format: in vivo, mouse
Method: FIG. 12. […] TMS was injected intraperitoneally (1.5 mg/kg) in female mice 1 h prior to 500 J/cm^2 UVA and 3 times a week thereafter for two weeks. Mice similarly injected with DMSO served as the control (n=5; white bar).

[2] = tested on: corneal endothelial cell (CEnC); assay: UVA light-induced CEnC loss in NQO1+/+ and NQO1−/− female mice (mouse model of FECD), HRT imaging; format: in vivo
Method: A mouse model of FECD was generated by knocking out the NQO1 gene. […] NQO1+/+ and NQO1−/− female mice were irradiated with UVA (500 J/cm^2; time: 20 minutes) to initiate CEnC loss. Either TMS (1 mg/kg) or DMSO (vehicle) was intraperitoneally injected three times a week post-UVA irradiation until week 2 (FIG. 13A). Central corneal thickness (CCT) and Corneal endothelium (CE) imaging was performed using anterior segment-optical coherence tomography (OCT) and Heidelberg Retina Tomograph III (HRT III) prior to UVA irradiation and then at day 1, week 1, week 2, and week 4 post-UVA irradiation. The CE density (cells/mm^2) was quantified by a semi-automated cell counter inbuilt in HRT machine. A mouse model of FECD was generated by knocking out the NQO1 gene. […] NQO1+/+ and NQO1−/− female mice were irradiated with UVA (500 J/cm^2; time: 20 minutes) to initiate CEnC loss. Either berberine (10 mg/kg) or Vehicle (90% PBS+5% Tween-80+5% polyethylene glycol) was intraperitoneally injected immediately after and at week 1 post-UVA irradiation (FIG. 14A). Central corneal thickness (CCT) and corneal endothelium (CE) imaging was performed using anterior segment-optical coherence tomography (AS-OCT) and Heidelberg Retina Tomograph III (HRT III) prior to UVA irradiation and then at day 1, week 1, and week 2, post-UVA irradiation. The CE density (cells/mm^2) was quantified by a semi-automated cell counter inbuilt in HRT machine.

HCEnC-21T cells = assay: LA-qPCR DNA lesion analysis in HCEnC-21T cells treated with 4-OHE2; format: cell-based, human; details: 15 μM 4-OHE2; 24 h
Method: (§1) Human Corneal Endothelial Cell Culture. Telomerase and SV40 T antigen immortalized normal human CE cell lines HCEnC-21T and HCEnC-SV-67F-16, respectively, were previously generated in our laboratory (26, 62). HCEnC-21T cells were seeded in estrogen-free medium (phenol red-free OptiMEM-I; Thermo Fisher Scientific) with charcoal stripped FBS (HyClone), 200 mg/L calcium chloride (Sigma-Aldrich), 0.08% chondroitin sulfate (Sigma-Aldrich) and treated with 15 μM 4-OHE2 (Steraloids) in phenol red-free OptiMEM-I. UVA Irradiation of Mouse Cornea. A UVA LED light source (M365LP1; Thorlabs) with an emission peak of 365 nm light, 9 nm bandwidth (FWHM) and irradiance of 398 mW/cm 2 was focused to illuminate a 4-mm-diameter spot onto the mouse cornea. The energy was measured using a laser sensor (model L49 [150A]; Ophir), and the time of UVA exposure was adjusted to deliver the appropriate fluence (10 min 29 s for 250 J/cm^2, 20 min 57 s for 500 J/cm^2, 31 min 26 s for 750 J/cm^2, and 41 min 54 s for 1,000 J/cm^2). The right eye (OD) was irradiated while the contralateral eye (OS) was covered with heat retention drapes (SpaceDrapes, Inc.) to serve as untreated control. […]
(§2) DNA Damage Analysis Using LA-qPCR. […] DNA lesion frequencies were calculated as described (24). […]

[3] = tested on: mouse corneal endothelial cell (MCEnC); assay: UVA-induced FECD mouse model: corneal endothelial cell density (in vivo confocal HRT / ZO-1 immunostaining); details: for increase in MCEnC density vs 1,000 J/cm^2 UVA irradiation only / MCEnC density: 2 mo, 1,000 J/cm^2 UVA; for increase in MCEnC density vs 1,000 J/cm^2 UVA irradiation only: NAC in drinking water 1 g/kg from 1 d prior
Method: (§3) Experimental Animals. C57BL/6 wild-type mice (male and female, 7 to 15 wk old; The Jackson Laboratory or Charles River) were used for this study. Mice were housed in a climate-controlled animal facility at the Schepens Eye Research Institute (Boston) and kept under cyclic light conditions with 12 h ON or OFF. Mice were anesthetized with a combined dose of ketamine (100 mg/kg) and xylazine (20 mg/kg) administered intraperitoneally. Female mice were irradiated at proestrus stage (61). For the NAC-treated group, mice were fed daily with drinking water containing 1 g of NAC/kg body weight from 1 d prior up to 3 mo post-UVA. All animal experiments were approved by the Institutional Animal Care and Use Committee and adhered to the ARVO Statement for the Use of Animals in Ophthalmic and Vision Research.
Human Corneal Endothelial Cell Culture. Telomerase and SV40 T antigen immortalized normal human CE cell lines HCEnC-21T and HCEnC-SV-67F-16, respectively, were previously generated in our laboratory (26, 62). HCEnC-21T cells were seeded in estrogen-free medium (phenol red-free OptiMEM-I; Thermo Fisher Scientific) with charcoal stripped FBS (HyClone), 200 mg/L calcium chloride (Sigma-Aldrich), 0.08% chondroitin sulfate (Sigma-Aldrich) and treated with 15 μM 4-OHE2 (Steraloids) in phenol red-free OptiMEM-I. UVA Irradiation of Mouse Cornea. A UVA LED light source (M365LP1; Thorlabs) with an emission peak of 365 nm light, 9 nm bandwidth (FWHM) and irradiance of 398 mW/cm 2 was focused to illuminate a 4-mm-diameter spot onto the mouse cornea. The energy was measured using a laser sensor (model L49 [150A]; Ophir), and the time of UVA exposure was adjusted to deliver the appropriate fluence (10 min 29 s for 250 J/cm^2, 20 min 57 s for 500 J/cm^2, 31 min 26 s for 750 J/cm^2, and 41 min 54 s for 1,000 J/cm^2). The right eye (OD) was irradiated while the contralateral eye (OS) was covered with heat retention drapes (SpaceDrapes, Inc.) to serve as untreated control. Mouse eyeballs from CYP1B1-null mice (age 8 to 12 wk, 10 females and 10 males) (31) were enucleated, rinsed with phosphate-buffered saline (PBS), and transported on ice, and cornea excision was performed within 24 h of the animal's death. Four 12-inch RPR-3500A UVA tubes (The Southern New England UV Co.) emitting 350 nm light (irradiance: 7.13 mW/cm 2) were used to irradiate the corneoscleral buttons placed in sterile PBS, with the endothelial side facing the source. The fluence delivered was 25 J/cm^2 (58 min 24 s at a distance of 10 cm). Irradiated corneas were snap-frozen, homogenized using a tissue grinder, and dissolved in methanol:water (2:1) for estrogen metabolite analysis.
The mouse was wrapped with heat retention drapes on the platform that holds the mouse body securely for imaging CE cells by laser scanning IVCM using the Heidelberg Retina Tomograph III (HRT III) with Rostock Corneal Module (RCM) (Heidelberg Engineering). The laser confocal microscope acquires 2D images that represent a coronal section of the cornea of 400×400 μm (160,000 μm^2) at a selectable corneal depth. Acquired images comprise 384×384 pixels and with a lateral resolution of 1 μm per pixel. Digital images were stored on a computer workstation at 3 frames per second.
Analysis of CE Cell Density. The CE density of HRT images acquired before UVA and post-UVA at 2 wk and 1 and 2 mo was analyzed by a semiautomated cell counter in the software Heidelberg Eye Explorer, version 1.3.0 (Heidelberg Engineering GmbH) inbuilt in HRT3. The mean cell density was calculated from 3 mice whose HRT images were counted by at least 2 observers. For each image, an area with at least 50 cells was selected. For CE density calculated from the images of 3 mice with ZO-1 immunostaining, cell count was performed manually by 2 blinded observers using a plug-in for ImageJ 1.46r (https://imagescience.org/meijering/software/imagescience; provided in the public domain by Wayne Rasband, NIH). […]

mouse cornea = assay: UVA-induced FECD mouse model: central corneal thickness (CCT) by OCT; format: in vivo
Method: as §3, §1
In vivo Imaging. […] CCT was measured using inbuilt software.

mouse aqueous humor = assay: ROS production assay (H2O2, Amplex Red) in mouse aqueous humor after UVA; format: in vivo; details: 1 d post-UVA
Method: as §3, with “All animal experiments were approved by the Institutional Animal Care and Use Committee and adhered to the ARVO Statement for the Use of Animals in Ophthalmic and Vision Research.” left out
(§4) Human Corneal Endothelial Cell Culture. […] The energy was measured using a laser sensor (model L49 [150A]; Ophir), and the time of UVA exposure was adjusted to deliver the appropriate fluence (10 min 29 s for 250 J/cm^2, 20 min 57 s for 500 J/cm^2, 31 min 26 s for 750 J/cm^2, and 41 min 54 s for 1,000 J/cm^2). […]
ROS Production Assay. Extracellular H2O2 levels in the mouse aqueous humor (3 μL), collected using a capillary needle from the dilated mouse anterior chamber, were detected using the Amplex Red Assay Kit (Molecular Probes, Life Technologies) according to manufacturer's instructions. Fluorescence was measured with excitation and emission at 550 and 590 nm, respectively, using a microplate reader (Bio-Tek) with Gen5 software at 37° C.

MCEnCs = assay: TUNEL assay on whole mount mouse CE after UVA; format: in vivo; details: females and males; 3 mo post-UVA
Method: as §3
as §4, with “Culture. Telomerase and SV40 T antigen immortalized normal human CE cell lines HCEnC-21T and HCEnC-SV-67F-16, respectively, were previously generated in our laboratory (26, 62).” for “Culture.”

MCEnC mtDNA and nDNA = assay: DNA damage analysis using LA-qPCR in MCEnCs after UVA; format: in vivo, mouse; details: 1,000 J/cm^2 UVA at 3 mo
Method: as §3
as §4, with “Culture. Telomerase and SV40 T antigen immortalized normal human CE cell lines HCEnC-21T and HCEnC-SV-67F-16, respectively, were previously generated in our laboratory (26, 62).” for “Culture.”
as §2

Compound: COc1cc(/C=C/c2ccc(OC)cc2OC)cc(OC)c1 [TMS, trans-2,3′,4,5′-tetramethoxystilbene]
- corneal endothelial cell loss ([1]; 1 week, 2 weeks and 1 month post 500 J/cm^2, 1.5 mg/kg intraperitoneally 1 h prior and 3 times a week for two weeks, vs DMSO, p<0.05): Rescue of corneal endothelial cell loss
- endothelial cell degeneration / UVA-induced corneal endothelial cell loss ([1]; mouse model of FECD, in vivo (FIGS. 11 and 12)): delayed the endothelial cell degeneration; also recorded: Rescue of UVA-induced corneal endothelial cell loss
- morphology of CEnC vs vehicle ([2]; NQO1+/+ and NQO1−/− female mice, TMS 1 mg/kg ip three times a week, weeks 2 and 4 post-UVA 500 J/cm^2): less irregular morphology
- CEnC number vs vehicle ([2]; NQO1+/+ and NQO1−/− female mice, TMS 1 mg/kg ip, weeks 2 and 4 post-UVA 500 J/cm^2): higher CEnC number; also recorded: reduces CEnC loss

Compound: COc1ccc2cc3[n+](cc2c1OC)CCc1cc2c(cc1-3)OCO2 [berberine]
- morphology of CEnC vs vehicle ([2]; NQO1+/+ and NQO1−/− female mice, berberine 10 mg/kg ip, week 2 post-UVA 500 J/cm^2): less irregular morphology
- CEnC number vs vehicle ([2]; NQO1+/+ females, berberine 10 mg/kg ip, week 2 post-UVA): trend towards higher CEnC number
- CEnC number vs vehicle ([2]; NQO1−/− females, berberine 10 mg/kg ip, week 2 post-UVA): significantly higher CEnC number
- UVA light-induced CEnC loss ([2]; berberine 10 mg/kg, mouse model of Fuchs Dystrophy (FIG. 14 title)): rescues UVA light-induced CEnC loss

Compound: C[C@]12CC[C@@H]3c4ccc(O)c(O)c4CC[C@H]3[C@@H]1CC[C@@H]2O [4-OHE2, 4-hydroxyestradiol]
- DNA lesions in the nuclear encoded β-globin gene (HCEnC-21T cells): 0.46 DNA lesions per 10 kb
- mtDNA lesions (HCEnC-21T cells): 0.65 DNA lesions per 10 kb

Compound: CC(=O)N[C@@H](CS)C(=O)O [NAC, N-acetylcysteine]
- morphological and molecular changes induced by UVA ([3]; UVA 1000 J/cm^2, in vivo (FIG. 10)): rescued
- increase in MCEnC density vs 1,000 J/cm^2 UVA irradiation only ([3]; females): 1.7 fold
- MCEnC density ([3]; females, no-NAC 855±115): 1,521±313 cells per square millimeter
- endothelial cell density ([3]; male and female, 3 mo after UVA, ZO-1 immunostaining): significantly rescued
- increase in MCEnC density vs 1,000 J/cm^2 UVA irradiation only ([3]; males): 1.6 fold
- MCEnC density ([3]; males, no-NAC 944±136): 1,560±136 cells per square millimeter
- CCT (mouse cornea; 1 to 3 mo after 1,000 J/cm^2 UVA): remained close to the untreated baseline
- CCT vs 1,000 J/cm^2 treated females (mouse cornea; females, 1, 2, and 3 mo after 1,000 J/cm^2 UVA): significant decrease in CCT
- CCT vs 1,000 J/cm^2 treated males (mouse cornea; males, 2 wk and 1 and 3 mo after 1,000 J/cm^2 UVA): significant decrease in CCT
- ROS formed due to UVA (H2O2 in aqueous humor) (mouse aqueous humor): significantly reduced
- TUNEL-positive cells vs non-NAC-treated UVA irradiated mice (MCEnCs): significantly less TUNEL-positive cells
- nDNA damage (MCEnC mtDNA and nDNA; both sexes): significantly rescued
- mtDNA damage (MCEnC mtDNA and nDNA; females): persisted
